In paper PMC6080863 (ACS Catalysis, 2018) one finds Kd data, which are given here for one molecule.

Broadly, the Kd is the equilibrium constant for the complex coming apart.

Numbering of substitutions follows the chain as printed.

The target of experiment [1] is T1, DERAm (monomeric variant of ecDERA) (Escherichia coli, UniProt P0A6L0, K58E/Y96W).
T1 sequence (P0A6L0 1-259 K58E/Y96W): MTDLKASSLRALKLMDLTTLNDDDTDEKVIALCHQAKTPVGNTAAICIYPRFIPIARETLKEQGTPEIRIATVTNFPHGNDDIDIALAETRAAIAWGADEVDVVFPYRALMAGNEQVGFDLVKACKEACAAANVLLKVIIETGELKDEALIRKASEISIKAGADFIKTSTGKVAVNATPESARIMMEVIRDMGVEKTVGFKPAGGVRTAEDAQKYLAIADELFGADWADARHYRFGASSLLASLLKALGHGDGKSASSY
Briefly: 1H-15N HSQC NMR titration, chemical shift perturbation. In kind it is binding.

Experiment [2] concerns the target T2, DERAm (monomeric variant of ecDERA) (Escherichia coli, UniProt P0A6L0, K58E/Y259F/Y96W).
T2 sequence (P0A6L0 1-259 K58E/Y96W/Y259F): T1 sequence (P0A6L0 1-259 K58E/Y96W) with Y259F
Described as above. In kind it is binding.

As for `O=P(O)(O)O` [potassium phosphate], the Kd in experiment [1] was 18.8 ± 3.6 mM; in experiment [2], 17.9 ± 2.4 mM.
